From patent US9605013B2, “Derivatives of hemin with antibacterial and antiviral activity” (OBSCHESTVO S OGRANICHENNOI OTVETSTVENNOSTIYU …, priority 2011, dated 2017) come the findings set out here.

The assay has as its system Herpes Simplex Virus type 1 strain EC. Description: Antiviral activity, virus cytopathogenic action in Vero cells. Type of assay: cell-based. Also noted: key: 0: CPA (cytopathogenic action) is not detected; 1: up to 25% virus-infected monolayer; from 25% to 50%; 3: from 50% to 75%; 4: from 75% to 100%. Particulars: 48 hours. (In general: Damage to the host cells serves as the signal in cytopathic effect assays.)

[1] abbreviates: HSV-1, virus dose 1, concentration 0.1 μM.
[2] abbreviates: HSV-1, virus dose 1, concentration 1 μM.
The mark [3] stands for this setting: HSV-1, virus dose 1, concentration 10 μM.
The mark [4] stands for this setting: HSV-1, virus dose 10, concentration 0.1 μM.
Where [5] appears, read: HSV-1, virus dose 10, concentration 1 μM.
Where [6] appears, read: HSV-1, virus dose 10, concentration 10 μM.
Where [7] appears, read: HSV-1, virus dose 100, concentration 0.1 μM.
Setting [8] is: HSV-1, virus dose 100, concentration 1 μM.
Where [9] appears, read: HSV-1, virus dose 100, concentration 10 μM.

“6,7-bis-(Amide N^α-Glycyl)-Protohemin (IX) [IV]”: the “manifestation of the virus CPA” value was 1 (up to 25% virus-infected monolayer) under setting [1]; 1 (up to 25% virus-infected monolayer) under setting [2]; 0^1 under setting [3]; 2 (from 25% to 50%) under setting [4]; 2 (from 25% to 50%) under setting [5]; 0^1 under setting [6]. Further, the “manifestation of the virus CPA” value is reported as 3 (from 50% to 75%) under setting [7], 3 (from 50% to 75%) under setting [8] and 2^1 (from 25% to 50%) under setting [9].
For the compound `C=CC1=C(C)c2cc3[n-]c(cc4[n-]c(cc5nc(cc1n2)C(C)=C5C=C)c(C)c4CCC(=O)N[C@@H](CO)C(=O)O)c(CCC(=O)N[C@@H](CO)C(=O)O)c3C.[Cl-].[Fe+3]` [VI, 6,7-bis-(N^α-Seryl]-Protohemin (IX)], the “manifestation of the virus CPA” value under setting [1] is reported as 0^1; the “manifestation of the virus CPA” value under setting [2] is reported as 0^1; the “manifestation of the virus CPA” value under setting [3] is recorded as 0^1; the “manifestation of the virus CPA” value under setting [4] is on record as 2 (from 25% to 50%); the “manifestation of the virus CPA” value under setting [5] is reported as 2 (from 25% to 50%); the “manifestation of the virus CPA” value under setting [6] was 2^ (from 25% to 50%). Further, the “manifestation of the virus CPA” value by setting is: under setting [7], 3 (from 50% to 75%); under setting [8], 3.3 scores; under setting [9], 3 (from 50% to 75%).
